According to paper PMC6238273, “First in vivo evaluation of a potential SPECT brain radiotracer for the gonadotropin releasing hormone receptor” (BMC Research Notes, 2018):
Entries after “also recorded” stand apart in the source; their conditions may differ.

Key:
[1] = target: T1, hGnRHR (Homo sapiens, UniProt P30968); experiment: Competitive binding for LHRH/GnRH by fluorescence based FLIPR-assay in HEK293T cells stably expressing GnRH receptors; format: cell-based; settings: for Ki: 5 nM LHRH agonist, Ki by cheng-prusoff equation; for IC50: competition with 5 nM LHRH agonist, read-out: hGnRHR pIC50 (converted)
T1 construct: host or cells: HEK293T
T1 sequence (P30968 1-328): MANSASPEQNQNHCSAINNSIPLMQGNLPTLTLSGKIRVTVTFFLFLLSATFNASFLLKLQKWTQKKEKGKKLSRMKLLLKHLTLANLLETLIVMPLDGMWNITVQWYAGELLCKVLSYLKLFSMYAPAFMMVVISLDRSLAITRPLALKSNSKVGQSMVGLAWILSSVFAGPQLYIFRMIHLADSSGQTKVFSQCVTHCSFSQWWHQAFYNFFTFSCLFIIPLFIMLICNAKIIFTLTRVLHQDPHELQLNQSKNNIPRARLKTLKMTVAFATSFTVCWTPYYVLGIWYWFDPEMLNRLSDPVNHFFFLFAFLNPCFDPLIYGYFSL
Method: HEK293T (division arrested cell-line, Multispan Inc. USA) cells stably expressing GnRH receptors were used to measure the competitive binding for LHRH/GnRH by a fluorescence based FLIPR-assay. Compound-1 was tested in concentrations from 50 µM to 0.5 nM with 5 nM LHRH agonist as competitor.
The Ki was determined by using the cheng-prusoff equation [13].

[2] = Stability in rat serum by LC-MS; format: in vitro ADME; settings: for % of compound remaining, rat serum: 37 °C
Method: (§1) The stability of Compound-1 was initially investigated in saline. Compound-1 was dissolved in ethanol:Polysorbate 80:water (5:5:90) then incubated with 300 µl 0.9% NaCl at ambient temperature to give a final concentration of 6.5 mM (millimolar). Aliquots were taken at 0, 60, 120 and 1560 min, then analysed by LC–MS. Furthermore, Compound-1 was investigated in human and rat serum. Compound-1 in ethanol:Polysorbate 80:water (5:5:90) was incubated with 400 µl human and 300 µl rat serum at 37 °C to give a final concentration of 5 mM and 6.5 mM. Aliquots (40–50 µl) from previous mixtures was extracted with ice-cold acetonitrile at 0, 10, 30, 60, 120, 240 and 1320 min post-incubation. Samples were centrifuged at 13,000g for 5 min. The supernatants were analysed by LC–MS. Serum experiments were performed in triplicate. Additionally, [^123I]-Compound-1 was evaluated for in vivo stability by analyzing blood samples after 1 h post injection. The blood samples were centrifuged and the supernatant was injected on the radio-HPLC.

[3] = Stability in human serum by LC-MS; format: in vitro ADME; settings: for % of compound remaining, human serum: 37 °C
Method: as §1

[4] = Rat brain SPECT imaging; format: in vivo
Method: Compound-1 SPECT brain imaging and biodistribution were examined post injection in rats. All animal procedures were performed under isoflurane anesthesia (Induction 4%, Maintenance 2% in oxygen). One group of rats was injected intravenous (iv.) with [^123I]-Compound-1 (1.67 MBq ± 0.28, n = 3). A second group was injected intraperitoneal (ip.) (4.12 MBq ± 0.56, n = 3). A third group of animals was injected iv. with Na^123I (1.53 MBq ± 0.37 SD, n = 3). Biodistribution of these compounds was studied after the SPECT imaging sessions 1 h post-injection (in the iv. groups) and 2 and 5 h post-administration in the ip. group. Rats were positioned with the brain in the center of the field of view inside a 4 detector configuration Triumph™ II X-SPECT^Ⓡ small animal PET/SPECT/CT scanner (Trifoil Imaging, Northridge Tri-Modality Imaging, Inc., Chatsworth, CA). Heart rate and breathing was monitored with sensors inside a closed animal cell (Equipment Veterinaire Minerve, Esternay) and the temperature on the heated air flow inside the cell was set to 35 °C to prevent hypothermia. […] Images were analyzed using PMOD (PMOD Technologies Ltd., Zürich). […] In addition, an average SPECT image over all time frames was calculated for each animal.

[5] = Stability in saline (0.9% NaCl) by LC-MS; format: physicochemical; settings: ambient temperature, n = 1
Method: as §1, with “Aliquots were taken at 0, 60, 120 and 1560 min, then analysed by LC–MS.” left out

[6] = Biodistribution in rats (gamma counter, % ID/g); format: in vivo; settings: rat
Method: Compound-1 SPECT brain imaging and biodistribution were examined post injection in rats. All animal procedures were performed under isoflurane anesthesia (Induction 4%, Maintenance 2% in oxygen). One group of rats was injected intravenous (iv.) with [^123I]-Compound-1 (1.67 MBq ± 0.28, n = 3). A second group was injected intraperitoneal (ip.) (4.12 MBq ± 0.56, n = 3). A third group of animals was injected iv. with Na^123I (1.53 MBq ± 0.37 SD, n = 3). Biodistribution of these compounds was studied after the SPECT imaging sessions 1 h post-injection (in the iv. groups) and 2 and 5 h post-administration in the ip. group. Rats were positioned with the brain in the center of the field of view inside a 4 detector configuration Triumph™ II X-SPECT^Ⓡ small animal PET/SPECT/CT scanner (Trifoil Imaging, Northridge Tri-Modality Imaging, Inc., Chatsworth, CA). Heart rate and breathing was monitored with sensors inside a closed animal cell (Equipment Veterinaire Minerve, Esternay) and the temperature on the heated air flow inside the cell was set to 35 °C to prevent hypothermia. Dynamic SPECT acquisitions for 30 and 60 min with 6–12 image frames (5 min duration) were obtained for the animals which were used for 1–2 h biodistribution studies respectively. The animals subjected to the 5 h biodistribution study were scanned after an average of 4 h and 20 min, a static SPECT of 30 min was acquired. 1.0 mm 5-multipinhole collimator (N5F65A10) and 50 mm radius of rotation (ROR). Images were reconstructed using a 20% energy window and Ordered Subset Expectation Maximization (OSEM) algorithm with 5 iterations and 8 subsets. Computed tomography (CT) was performed using 80 kVp, 2 × 2 binning, 512 projections and 1.3× magnification, immediately after SPECT imaging. The raw data were reconstructed using Filtered Back Projection. Images were analyzed using PMOD (PMOD Technologies Ltd., Zürich). Volumes of interests (VOI) representing the brain-tissue, non-brain-tissue and background regions were delineated based on the anatomical CT images, and transferred to the co-registered dynamic SPECT data. In addition, an average SPECT image over all time frames was calculated for each animal.
Animals were euthanized with an overdose of pentobarbital (ip. […]) and organs were collected, weighed and analysed for radioactivity measurements on an automatic gamma counter (Wizard^2 2480, Perkin Elmer, USA). Organ distribution was expressed as percentage of injected dose per gram for the organs selected (% ID/g).

[7] = In vivo stability: radio-HPLC of blood samples 1 h post injection; settings: rat blood samples 1 h post injection
Method: as §1

[8] = 120 min, mean ± SD n = 3, listed as compound 1

For `CC(C)(C)c1ccc(-c2nc3c(N4CCN(C(=O)CI)CC4)cccc3[nH]2)cc1` [Compound-1], which Ki [1] is on record?
The Ki was 82 nM.

And the IC50 [1]?
The IC50 was 5130 nM.

And the “% of compound remaining, rat serum” value ([2]; 0 min, 6.5 mM)?
The value was 100%.

What about the “% of compound remaining, rat serum” value ([2]; 10 min, mean ± SD n = 3) of the same compound?
Its value is 86±7.3%.

And the “% of compound remaining, rat serum” value ([2]; 30 min, mean ± SD n = 3)?
The value was 82±11.5%.

What about the “% of compound remaining, rat serum” value ([2]; 60 min, mean ± SD n = 3) of the same compound?
The value was 44±5.5%.

What about the “% of compound remaining, rat serum” value ([2]; 120 min, mean ± SD n = 3) of the same compound?
The value was “approximately 30%”.

What about the “% of compound remaining, rat serum” value [2, 8] of the same compound?
Its value is 30±4.8%.

And the “% of compound remaining, rat serum” value ([2]; 240 min, mean ± SD n = 3)?
The value was 8±1.6%.

What about the “% of compound remaining, rat serum” value ([2]; 1320 min) of the same compound?
The value was 0%.

What about the “decrease of compound in rat serum” value ([2]; after 1 h, LC-MS) of the same compound?
The value was 50%.

And the “% of compound remaining, human serum” value ([3]; 0 min, 5 mM)?
Its value is 100%.

What about the “% of compound remaining, human serum” value ([3]; 10 min, mean ± SD n = 3) of the same compound?
The value was 88±1.6%.

What about the “% of compound remaining, human serum” value ([3]; 30 min, mean ± SD n = 3) of the same compound?
Its value is 74±8.1%.

What about the “% of compound remaining, human serum” value ([3]; 60 min, mean ± SD n = 3) of the same compound?
The value was 52±1.5%.

What about the “% of compound remaining, human serum” value ([3]; 120 min, mean ± SD n = 3) of the same compound?
Its value is 23%.

What about the “% of compound remaining, human serum” value [3, 8] of the same compound?
The value was 23±1.6%.

And the “% of compound remaining, human serum” value ([3]; 240 min, mean ± SD n = 3)?
Its value is 3±0.3%.

What about the “% of compound remaining, human serum” value ([3]; 1320 min) of the same compound?
The value was 0%.

What about the “decrease of compound in human serum” value ([3]; after 1 h, LC-MS) of the same compound?
Its value is 50%.

And the “brain uptake in SPECT images” value ([4]; iv. or ip. injection)?
The value was “no uptake; also recorded: did not show any uptake”.

And the “% of compound remaining, saline” value ([5]; 0 min, 6.5 mM)?
The value was 100%.

What about the “% of compound remaining, saline” value ([5]; 60 min) of the same compound?
Its value is 46%.

And the “% of compound remaining, saline” value ([5]; 120 min)?
The value was 10%.

And the “% of compound remaining, saline” value ([5]; 1440 min (24 h))?
The value was 2%.

And the “% of compound remaining, saline” value ([5]; 1440 min (24 h), listed as compound 1)?
Its value is 1.6%.

Which results are given for `CC(C)(C)c1ccc(-c2nc3c(N4CCN(C(=O)C[123I])CC4)cccc3[nH]2)cc1` [[^123I]-Compound-1]?
organ distribution, brain ([6]; 1 h post iv. injection): 0.03 % ID/g; organ distribution, stomach ([6]; 1 h post iv. injection): 3.6 % ID/g; organ distribution, testis ([6]; 1 h post iv. injection): 0.2 % ID/g; organ distribution, thyroid ([6]; 1 h post iv. injection): 1.2 % ID/g; organ distribution, stomach ([6]; 2 h post ip. administration): 2.5 % ID/g; organ distribution, thyroid ([6]; 2 h post ip. administration): 5.8 % ID/g; organ distribution, stomach ([6]; 5 h post ip. administration): 2 % ID/g; organ distribution, thyroid ([6]; 5 h post ip. administration): 13.1 % ID/g; detection of intact radiotracer in blood by radio-HPLC [7]: did not detect; SPECT VOI comparison (brain, non-brain region, background region) ([4]; semi-quantitative SPECT analysis): no significant differences

Which Ki [1] does the source give for `CC(C)(C)c1ccc(-c2nc3c(N4CCN(Cc5ccc6nccnc6c5)CC4)cccc3[nH]2)cc1` [WAY207024, 6-({4-[2-(4-tert-butylphenyl)-1H-benzimidazol-4-yl]piperazin-1-yl}methyl)quinoxaline, reference compound] here?
The Ki was 12.2 nM.

And the IC50 [1]?
The IC50 was 631 nM.
